According to US20260258084A1, “New Peptides as Selective IL-23 Receptor Antagonists” (Sanofi, priority 2022, published 2026):
Converted amounts (≈) assume the structure as drawn. Read-outs that look alike come from different tables or passages of the source. Starred links: 1 amine or outer side, 2 acyl side, 3 side chain; linkers in the order of their positions; H or OH if unused. Positions of bridges follow the written chain, without caps; N, C: chain ends. Non-standard residues stand in square brackets, D forms with d. Residues, ends and D or L forms follow the SMILES beside them. *: point of attachment. X3 = CN(CCCCC(=O)N[C@@H](CS[*:2])C(=O)[*:1])[*:3]; Trp(7-Me) = Cc1cccc2c(C[C@H](N)C(=O)O)c[nH]c12; X1 = O=C(CCCCN[*:3])N[C@@H](CS[*:2])C(=O)[*:1]; αMeLys(Me2) = CN(C)CCCC[C@](C)(N)C(=O)O; X2 = CN(C)[C@@H](CCCCN[*:1])C(=O)[*:2]; 2Nal = N[C@@H](Cc1ccc2ccccc2c1)C(=O)O; AEF = NCCOc1ccc(C[C@H](N)C(=O)O)cc1; 3Pal = N[C@@H](Cc1cccnc1)C(=O)O; αMeL = CC(C)C[C@](C)(N)C(=O)O; Suc = O=C(CCC(=O)[*:2])[*:1]; Thp = NC1(C(=O)O)CCOCC1; Me2NCH2CH2 = CN(C)CC*; Aib = CC(C)(N)C(=O)O; Ava = NCCCCC(=O)O; βAla = NCCC(=O)O; Sar = CNCC(=O)O

Assay: Solubility testing of peptides at different pH
Assay type: physicochemical
Settings: target concentration 1 mg/ml, 2 hours agitation
Outline: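 Four buffers were used: 50 mM HCl pH 1.2 and 50 mM phosphate at pH 6.5, 7.4 and 9.0, each receiving dried-down compound at a 1 mg/mL target. After 2 h gentle shaking and 0.45 μm filtration, UV peak areas were compared with a DMSO standard curve of known concentration, allowing for extinction coefficients.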

[1] = 50 mM HCl buffer, 50 mM HCl pH 1.2, read-out: Solubility Buffer pH 1.2
[2] = 50 mM phosphate buffer pH 6.5, read-out: Solubility Buffer pH 6.5
[3] = 50 mM phosphate buffer pH 7.4, read-out: Solubility Buffer pH 7.4
[4] = 50 mM phosphate buffer pH 9.0, read-out: Solubility Buffer pH 9.0

For `CC(=O)N[C@H]1CCCCNC(=O)[C@@H]2CSSC[C@H](NC(=O)[C@H](CCC(N)=O)NC(=O)[C@H](Cc3c[nH]c4ccccc34)NC1=O)C(=O)N[C@@H](Cc1ccc(OCCN)cc1)C(=O)N[C@@H](Cc1ccc3ccccc3c1)C(=O)N[C@@](C)(CC(C)C)C(=O)N[C@H](C(=O)N[C@@H](C)C(=O)NCC(N)=O)CCC(=O)N(C)CCCCC(=O)N2` [compound 18] (Ac-KWQC[AEF][2Nal][αMeL]EAG-NH2; linker 1-4-8 via X3), which solubility at 2 h [1] is on record?
The solubility at 2 h was 10 µg/mL (≈ 6.29 µM).

What about the solubility at 2 h [2] of the same molecule?
Its solubility at 2 h is less than 10 µg/mL.

What about the solubility at 2 h [3] of the same molecule?
The solubility at 2 h was less than 10 µg/mL.

And the solubility at 2 h [4]?
The solubility at 2 h was less than 10 µg/mL.

What does the source list for `CC(C)C[C@]1(C)NC(=O)[C@H](Cc2ccc3ccccc3c2)NC(=O)[C@H](Cc2ccc(OCCN(C)C)cc2)NC(=O)[C@@H]2CSSC[C@H](NC(=O)CCCCNC(=O)CC[C@@H](C(=O)N[C@@H](CC(N)=O)C(=O)N[C@@H](CC(N)=O)C(N)=O)NC1=O)C(=O)N[C@@H](CC(N)=O)C(=O)N[C@@H]([C@@H](C)O)C(=O)N[C@@H](Cc1c[nH]c3ccccc13)C(=O)N[C@@H](CCC(N)=O)C(=O)N2` [compound 27] ([Ava]CNTWQCY(Me2NCH2CH2)[2Nal][αMeL]ENN-NH2; disulfide 2-7; lactam N-11)?
solubility at 2 h [1]: ≥ 890 µg/mL; solubility at 2 h [2]: ≥ 870 µg/mL; solubility at 2 h [3]: 810 µg/mL (≈ 463 µM); solubility at 2 h [4]: 270 µg/mL (≈ 154 µM)

With `CC(=O)N[C@H]1CCCCNC(=O)[C@@H]2CSSC[C@H](NC(=O)[C@H](CCC(N)=O)NC(=O)[C@H](Cc3c[nH]c4ccccc34)NC1=O)C(=O)N[C@@H](Cc1ccc(OCCN(C)C)cc1)C(=O)N[C@@H](Cc1ccc3ccccc3c1)C(=O)NC1(CCOCC1)C(=O)N[C@H](C(=O)N[C@@H](C)C(=O)N[C@H](CC(C)C)C(N)=O)CCC(=O)NCCCCC(=O)N2` [compound 33] (Ac-KWQCY(Me2NCH2CH2)[2Nal][Thp]EA[dL]-NH2; linker 1-4-8 via X1) as the molecule, how does the solubility at 2 h [1] read?
The solubility at 2 h was no less than 1000 µg/mL.

And the solubility at 2 h [2]?
Its solubility at 2 h is no less than 890 µg/mL.

What about the solubility at 2 h [3] of the same molecule?
Its solubility at 2 h is 640 µg/mL (≈ 386 µM).

What about the solubility at 2 h [4] of the same molecule?
Its solubility at 2 h is 130 µg/mL (≈ 78.4 µM).

What does the source list for `CC(=O)NCCCC[C@@H]1NC(=O)[C@H](Cc2c[nH]c3c(C)cccc23)NC(=O)[C@H]([C@@H](C)O)NC(=O)[C@H](CC(N)=O)NC(=O)[C@@H]2CSSC[C@H](NC1=O)C(=O)N[C@@H](Cc1ccc(OCCN(C)C)cc1)C(=O)N[C@@H](Cc1ccc3ccccc3c1)C(=O)N[C@@](C)(CC(C)C)C(=O)N[C@H](C(=O)N[C@@H](CC(N)=O)C(=O)N[C@@H](Cc1c[nH]cn1)C(N)=O)CCCCNC(=O)CCC(=O)N2` [compound 23] (CNT[Trp(7-Me)]K(Ac)CY(Me2NCH2CH2)[2Nal][αMeL]KNH-NH2; disulfide 1-6; linker N-10 via Suc)?
solubility at 2 h [1]: ≥ 970 µg/mL; solubility at 2 h [2]: 980 µg/mL (≈ 536 µM); solubility at 2 h [3]: 210 µg/mL (≈ 115 µM); solubility at 2 h [4]: 60 µg/mL (≈ 32.8 µM)

With `CC(=O)N[C@H]1CCCCNC(=O)[C@@H]2CSSC[C@H](NC(=O)[C@H](CCC(N)=O)NC(=O)[C@H](Cc3c[nH]c4ccccc34)NC1=O)C(=O)N[C@@H](Cc1ccc(OCCN)cc1)C(=O)N[C@@H](Cc1ccc3ccccc3c1)C(=O)NC1(CCOCC1)C(=O)N[C@H](C(=O)N[C@@H](CC(N)=O)C(=O)N[C@@H](CC(N)=O)C(N)=O)CCC(=O)N(C)CCCCC(=O)N2` [compound 13] (Ac-KWQC[AEF][2Nal][Thp]ENN-NH2; linker 1-4-8 via X3) as the molecule, how does the solubility at 2 h [1] read?
The solubility at 2 h was no less than 1050 µg/mL.

And the solubility at 2 h [2]?
Its solubility at 2 h is no less than 1070 µg/mL.

What about the solubility at 2 h [3] of the same molecule?
Its solubility at 2 h is 770 µg/mL (≈ 456 µM).

And the solubility at 2 h [4]?
Its solubility at 2 h is no less than 990 µg/mL.

What does the source list for `CC(=O)NCCCC[C@@H]1NC(=O)[C@H](Cc2c[nH]c3ccccc23)NC(=O)[C@@H](N(C)C)CCCCNC(=O)[C@@H]2CSSC[C@H](NC1=O)C(=O)N[C@@H](Cc1ccc(OCCN(C)C)cc1)C(=O)N[C@@H](Cc1ccc3ccccc3c1)C(=O)N[C@@](C)(CCCCN(C)C)C(=O)N[C@H](C(=O)N[C@@H](CC(N)=O)C(=O)N[C@@H](Cc1cccnc1)C(=O)N(C)CC(N)=O)CCC(=O)NCCCCC(=O)N2` [compound 36] ([Ava]C[X2]WK(Ac)CY(Me2NCH2CH2)[2Nal][αMeLys(Me2)]EN[3Pal][Sar]-NH2; disulfide 2-6; lactam N-10)?
solubility at 2 h [1]: ≥ 1010 µg/mL; solubility at 2 h [2]: ≥ 1100 µg/mL; solubility at 2 h [3]: ≥ 1080 µg/mL; solubility at 2 h [4]: ≥ 1150 µg/mL

For `CC(=O)NCCCC[C@@H]1NC(=O)[C@H](Cc2c[nH]c3c(C)cccc23)NC(=O)[C@H]([C@@H](C)O)NC(=O)[C@H](CC(N)=O)NC(=O)[C@@H]2CSSC[C@H](NC1=O)C(=O)N[C@@H](Cc1ccc(OCCN(C)C)cc1)C(=O)N[C@@H](Cc1ccc3ccccc3c1)C(=O)NC1(CCOCC1)C(=O)N[C@H](C(=O)N[C@@H](CC(N)=O)C(=O)N[C@@H](Cc1cccnc1)C(N)=O)CCC(=O)NCCCCC(=O)N2` [compound 51] ([Ava]CNT[Trp(7-Me)]K(Ac)CY(Me2NCH2CH2)[2Nal][Thp]EN[3Pal]-NH2; disulfide 2-7; lactam N-11), which solubility at 2 h [1] is on record?
Its solubility at 2 h is no less than 1020 µg/mL.

What about the solubility at 2 h [2] of the same molecule?
The solubility at 2 h was no less than 930 µg/mL.

And the solubility at 2 h [3]?
The solubility at 2 h was 430 µg/mL (≈ 234 µM).

And the solubility at 2 h [4]?
The solubility at 2 h was 100 µg/mL (≈ 54.4 µM).

What does the source list for `COc1ccc(C[C@@H]2NC(=O)[C@@H]3CSSC[C@H](NC(=O)CCCCNC(=O)CC[C@@H](C(=O)N[C@@H](CC(N)=O)C(=O)NCC(N)=O)NC(=O)C(C)(C)NC(=O)[C@H](Cc4ccc5ccccc5c4)NC2=O)C(=O)N[C@@H](CC(N)=O)C(=O)N[C@@H]([C@@H](C)O)C(=O)N[C@@H](Cc2c[nH]c4ccccc24)C(=O)N[C@@H](CCC(N)=O)C(=O)N3)cc1` [compound 4] ([Ava]CNTWQCY(Me)[2Nal][Aib]ENG-NH2; disulfide 2-7; lactam N-11)?
solubility at 2 h [1]: 30 µg/mL (≈ 18.8 µM); solubility at 2 h [2]: 20 µg/mL (≈ 12.6 µM); solubility at 2 h [3]: 20 µg/mL (≈ 12.6 µM); solubility at 2 h [4]: 10 µg/mL (≈ 6.28 µM)

For `CC(=O)NCCCC[C@@H]1NC(=O)[C@H](Cc2c[nH]c3c(C)cccc23)NC(=O)[C@H]([C@@H](C)O)NC(=O)[C@H](CC(N)=O)NC(=O)[C@@H]2CSSC[C@H](NC1=O)C(=O)N[C@@H](Cc1ccc(OCCN(C)C)cc1)C(=O)N[C@@H](Cc1ccc3ccccc3c1)C(=O)NC(C)(C)C(=O)N[C@H](C(=O)N[C@@H](CC(N)=O)C(=O)N[C@@H](Cc1c[nH]cn1)C(=O)NCCC(N)=O)CCC(=O)NCCCCC(=O)N2` [compound 48] ([Ava]CNT[Trp(7-Me)]K(Ac)CY(Me2NCH2CH2)[2Nal][Aib]ENH[βAla]-NH2; disulfide 2-7; lactam N-11), which solubility at 2 h [1] is on record?
The solubility at 2 h was no less than 1060 µg/mL.

And the solubility at 2 h [2]?
The solubility at 2 h was no less than 1040 µg/mL.

What about the solubility at 2 h [3] of the same molecule?
The solubility at 2 h was no less than 990 µg/mL.

And the solubility at 2 h [4]?
The solubility at 2 h was no less than 1040 µg/mL.

For `CC(=O)N[C@H]1CCCCNC(=O)[C@@H]2CSSC[C@H](NC(=O)[C@H](CCC(N)=O)NC(=O)[C@H](Cc3c[nH]c4ccccc34)NC1=O)C(=O)N[C@@H](Cc1ccc(OCCN(C)C)cc1)C(=O)N[C@@H](Cc1ccc3ccccc3c1)C(=O)NC(C)(C)C(=O)N[C@H](C(=O)N[C@@H](C)C(=O)NCC(N)=O)CCC(=O)NCCCCC(=O)N2` [compound 32] (Ac-KWQCY(Me2NCH2CH2)[2Nal][Aib]EAG-NH2; linker 1-4-8 via X1), which solubility at 2 h [1] is on record?
Its solubility at 2 h is 740 µg/mL (≈ 474 µM).

And the solubility at 2 h [2]?
Its solubility at 2 h is no less than 880 µg/mL.

What about the solubility at 2 h [3] of the same molecule?
Its solubility at 2 h is no less than 870 µg/mL.

And the solubility at 2 h [4]?
Its solubility at 2 h is 170 µg/mL (≈ 109 µM).

Which results are given for `CC(=O)NCCCC[C@@H]1NC(=O)[C@H](Cc2c[nH]c3c(C)cccc23)NC(=O)[C@H]([C@@H](C)O)NC(=O)[C@H](CC(N)=O)NC(=O)[C@@H]2CSSC[C@H](NC1=O)C(=O)N[C@@H](Cc1ccc(OCCN(C)C)cc1)C(=O)N[C@@H](Cc1ccc3ccccc3c1)C(=O)N[C@@](C)(CC(C)C)C(=O)N[C@H](C(=O)N[C@@H](CC(N)=O)C(=O)N[C@@H](Cc1c[nH]cn1)C(=O)N(C)CC(N)=O)CCC(=O)NCCCCC(=O)N2` [compound 47] ([Ava]CNT[Trp(7-Me)]K(Ac)CY(Me2NCH2CH2)[2Nal][αMeL]ENH[Sar]-NH2; disulfide 2-7; lactam N-11)?
solubility at 2 h [1]: ≥ 1000 µg/mL; solubility at 2 h [2]: ≥ 950 µg/mL; solubility at 2 h [3]: 540 µg/mL (≈ 284 µM); solubility at 2 h [4]: 110 µg/mL (≈ 57.9 µM)
